tested on: HBV (HepG2.2.15 cells); test: Anti-HBV activity experiment in vitro (HepG2.2.15, HBV DNA in supernatant, qPCR); type: cell-based; conditions: Hepatitis B virus, HBV DNA in supernatant by qPCR, eighth day
Protocol: Compound Dilution: initial concentrations of all compounds used in the anti-HBV activity experiments in vitro were 1 μM, 3-fold diluted into 8 concentrations; initial concentrations of all compounds used in the cytotoxicity assay were 100 μM, 3-fold diluted into 8 concentrations; and the mother liquor of the compound was diluted with DMSO.
Anti-HBV Activity Experiment In Vitro: HepG2.2.15 cells (4×10^4 cells/well) were seeded in 96-well plates and cultured overnight at 37° C. in 5% CO2. The next day, fresh cultures containing compounds in different concentrations were added into the culture wells. On the fifth day, the old culture medium in the culture wells was aspirated and removed. Fresh medium containing compounds in different concentrations was added. On the eighth day, supernatants in the culture wells were collected and used to extract HBV DNA in the supernatant. qPCR assay was used to detect HBV DNA content in the HepG2.2.15 supernatant.
The data analysis and the percentage of inhibition calculation: the percentage of inhibition was calculated by using the following formula: Inhibition %=[(HBV amount in DMSO control−HBV amount in sample)/HBV amount in DMSO control]×100%.

| Compound | EC50 |
| --- | --- |
| O=C1COC(c2cn(-c3ccc(Br)cc3)nc2-c2ccc(F)cc2)N1CCc1cc2[nH]c(=O)[nH]c2cc1F (racemic) [example 8 racemate, 2-(1-(4-bromophenyl)-3-(4-fluorophenyl)11/-pyrazol-4-yl)-3-(2-(6-fluoro-2-carbonyl-2,3-dihydro-1H-benzo[d]imidazol-5-yl)ethyl)oxazoline-4-one] | 35.5 nM |
| O=C1COC(c2cn(-c3ccc(Br)cc3)nc2-c2ccoc2)N1CCc1ccc2[nH]c(=O)[nH]c2c1 (racemic) [example 21 racemate, 2-(1-(4-bromophenyl)-3-(furan-3-yl)-1H-pyrazol-4-yl)-3-(2-(2-oxo-2,3-dihydro-1H-benzo[d]imidazol-5-yl)ethyl)oxazolidin-4-one] | 30.6 nM |
| Nc1ccc(CCN2C(=O)COC2c2cn(-c3ccc(Br)cc3)nc2-c2ccc(F)cc2)cc1 (centres unmarked) [example 1 intermediate] | 11.8 nM |
| O=C1COC(c2cn(-c3ccc(Br)cc3)nc2-c2ccc(F)cc2)N1CCc1ccc2[nH]cnc2c1 (centres unmarked) [example 1, 3-(2-(1H-benzo[d]imidazol-5-yl)ethyl)-2-(1-(4-bromophenyl)-3-(4-fluorophenyl)-1 H-pyrazol-4-yl)oxazoline-4-one] | 50.3 nM |
| O=C1COC(c2cn(-c3ccc(Br)cc3)nc2-c2ccc(F)cc2)N1CCc1ccc2[nH]nnc2c1 (centres unmarked) [example 2, 3-(2-(1H-benzo[d][1,2,3]triazol-5-yl)ethyl)-2-(1-(4-bromophenyl)-3-(4-fluoropheny 1)-1H-pyrazol-4-yl)oxazoline-4-one] | 68.8 nM |
| O=C1CO[C@@H](c2cn(-c3ccc(Br)cc3)nc2-c2ccc(F)cc2)N1CCc1ccc2[nH]c(=O)[nH]c2c1 [example 3 S isomer, (S)-3-(2-(2-oxo-2,3-dihydro-1H-benzo[d]imidazol-5-yl)ethyl)-2-(1-(4-bromophenyl)-3-(4-fluorophenyl)-1H-pyrazol-4-yl)-oxazolidin-4-one] | > 1000 nM |
| N=c1[nH]c2ccc(CCN3C(=O)COC3c3cn(-c4ccc(Br)cc4)nc3-c3ccc(F)cc3)cc2[nH]1 (centres unmarked) [example 4, 3-(2-(2-amino-1H-benzo[d]imidazol-6-yl)ethyl)-2-(1-(4-bromophenyl)-3-(4-fluorophenyl)-1H-pyrazol-4-yl)oxazoline-4-one] | > 1000 nM |
| O=C1COC(c2cn(-c3ccc(Br)cc3)nc2-c2ccc(F)cc2)N1CCc1ccc2[nH]c(=S)[nH]c2c1 (centres unmarked) [example 5, 2-(1-(4-bromophenyl)-3-(4-fluorophenyl)-1H-pyrazol-4-yl)-3-(2-(2,3-dihydro-2-thio-1H-benzo[d]imidazol-5-yl)ethyl)oxazoline-4-one] | 45.7 nM |
| O=C1COC(c2cn(-c3ccc(Br)cc3)nc2-c2ccc(F)cc2)N1CCc1cc2nc[nH]c2cc1F (centres unmarked) [example 7, 2-(1-(4-bromophenyl)-3-(4-fluorophenyl)1H-pyrazol-4-yl)-3-(2-(5-fluoro-1H-benzo[d]imidazol-6-yl)ethyl)oxazoline-4-one] | 67.5 nM |
| O=C1CO[C@H](c2cn(-c3ccc(Br)cc3)nc2-c2ccc(F)cc2)N1CCc1cc2[nH]c(=O)[nH]c2cc1F [example 8 R isomer, (R)-2-(1-(4-bromophenyl)-3-(4-fluorophenyl)1H-pyrazol-4-yl)-3-(2-(6-fluoro-2-carbonyl-2,3-dihydro-1H-benzo[d]imidazol-5-yl)ethyl)oxazoline-4-one] | 15.5 nM |
| O=C1CO[C@@H](c2cn(-c3ccc(Br)cc3)nc2-c2ccc(F)cc2)N1CCc1cc2[nH]c(=O)[nH]c2cc1F [example 8 S isomer, (S)-2-(1-(4-bromophenyl)-3-(4-fluorophenyl)1H-pyrazol-4-yl)-3-(2-(6-fluoro-2-carbonyl-2,3-dihydro-1H-benzo[d]imidazol-5-yl)ethyl)oxazoline-4-one] | > 1000 nM |
| O=C1COC(c2cn(-c3ccc(Br)cc3)nc2-c2ccc(F)cc2)N1CCc1cc2nn[nH]c2cc1F (centres unmarked) [example 9, 3-(2-(5-fluoro-1H-benzo[d][1,2,3]triazol-6-yl)ethyl)-2-(1-(4-bromophenyl)-3-(4-fluorophenyl)-1H-pyrazol-4-yl)oxazoline-4-one] | 234 nM |
| O=C1COC(c2cn(-c3ccc(Br)cc3)nc2-c2ccc(F)cc2)N1CCc1c(F)cc2[nH]cnc2c1F (centres unmarked) [example 10, 2-(1-(4-bromophenyl)-3-(4-fluorophenyl)1H-pyrazol-4-yl)-3-(2-(5,7-difluoro-1H-benzo[d]imidazol-6-yl)ethyl)oxazoline-4-one] | 134 nM |
| O=C1COC(c2cn(-c3ccc(Br)cc3)nc2-c2ccc(F)cc2)N1CCc1c(F)cc2[nH]c(=O)[nH]c2c1F (centres unmarked) [example 11, 2-(1-(4-bromophenyl)-3-(4-fluorophenyl)1H-pyrazol-4-yl)-3-(2-(4,6-difluoro-2-carbonyl-2,3-dihydro-1H-benzo[d]imidazol-5-yl)ethyl)oxazoline-4-one] | 101 nM |
| O=C1COC(c2cn(-c3ccc(Br)cc3)nc2-c2ccc(F)cc2)N1CCc1c(F)cc2[nH]nnc2c1F (centres unmarked) [example 12, 2-(1-(4-bromophcnyl)-3-(4-fluorophenyl)-1H-pyrazol-4-yl)-3-(2-(5,7-difluoro-1H hydrogen-benzor[d][1,2,3]triazol-6-yl)ethyl)oxazoline-4-one] | 223 nM |
| O=C1Cc2cc(CCN3C(=O)CO[C@@H]3c3cn(-c4ccc(Br)cc4)nc3-c3ccc(F)cc3)ccc2N1 [example 13 R isomer] | 14.4 nM |
| O=C1Cc2cc(CCN3C(=O)CO[C@H]3c3cn(-c4ccc(Br)cc4)nc3-c3ccc(F)cc3)ccc2N1 [example 13 S isomer] | > 1000 nM |
| O=C1COC(c2cn(-c3ccc(Br)cc3)nc2-c2ccc(F)cc2)N1CCc1ccc2c(c1)C(F)(F)C(=O)N2 (centres unmarked) [example 14] | > 1000 nM |
| O=C1CO[C@H](c2cn(-c3ccc(F)cc3)nc2-c2ccc(F)cc2)N1CCc1ccc2[nH]c(=O)[nH]c2c1 [example 15 R isomer, (R)-3-(2-(2-oxo-2,3-dihydro-1H-benzo[d]imidazol-5-yl)ethyl)-2-(1-(4-fluorophenyl)-3-(4-fluorophenyl)-1H-pyrazol-4-yl)-oxazolidin-4-one] | 44.5 nM |
| O=C1CO[C@@H](c2cn(-c3ccc(F)cc3)nc2-c2ccc(F)cc2)N1CCc1ccc2[nH]c(=O)[nH]c2c1 [example 15 S isomer, (S)-3-(2-(2-oxo-2,3-dihydro-1H-benzo[d]imidazol-5-yl)ethyl)-2-(1-(4-fluorophenyl)-3-(4-fluorophenyl)-1H-pyrazol-4-yl)-oxazolidin-4-one] | > 1000 nM |
| O=C1COC(c2cn(-c3ccc(Br)cc3)nc2-c2ccc(F)cc2)N1CCc1ccc2[nH]c(=O)oc2c1 (centres unmarked) [example 16, 6-(2-{2-[1-(4-bromo-phenyl)-3-(4-fluoro-phenyl)-1-hydro-pyrazol-4-yl]-4-carbonyl-oxazoline-3-yl}-ethyl)-3-hydro-2-carbonyl-benzoxazole] | 80.3 nM |
| O=C1COC(c2cn(-c3ccc(Br)cc3)nc2-c2ccc(F)cc2)N1CCc1ccc2oc(=O)[nH]c2c1 (centres unmarked) [example 17] | 150 nM |
| O=C1COC(c2cn(-c3ccc(Br)cc3)nc2-c2ccc(F)cc2)N1CCc1ccc2[nH]c(=O)sc2c1 (centres unmarked) [example 18, 2-(1-(4-bromophenyl)-3-(4-fluorophenyl)-1H-pyrazol-4-yl)-3-(2-(2-carbonyl-2,3-dihydrobenzo[d]thiazol-6-yl)ethyl)-4-carbonyl-oxazoline] | 60.4 nM |
| O=C1COC(c2cn(-c3ccc(Br)cc3)nc2-c2ccc(F)cc2)N1CCc1ccc2sc(=O)[nH]c2c1 (centres unmarked) [example 19, 2-(1-(4-bromophenyl)-3-(4-fluorophenyl)-1H-pyrazol-4-yl)-3-(2-(2-oxo-2,3-dihydrobenzo[d]thiazol-5-yl)ethyl)oxazoline-4-one] | 162 nM |
| O=C1COC(c2cn(-c3ccc(Br)cc3)nc2-c2ccsc2)N1CCc1ccc2[nH]c(=O)[nH]c2c1 (centres unmarked) [example 20, 2-(1-(4-bromophenyl)-3-(thiophene-3-yl)-1H-pyrazol-4-yl)-3-(2-(2-oxo-2,3-dihydro-1H-benzo[d]imidazol-5-yl)ethyl)oxazolidin-4-one] | 20.9 nM |
| O=C1CO[C@H](c2cn(-c3ccc(Br)cc3)nc2-c2ccoc2)N1CCc1ccc2[nH]c(=O)[nH]c2c1 [example 21 R isomer, (R)-2-(1-(4-bromophenyl)-3-(furan-3-yl)-1H-pyrazol-4-yl)-3-(2-(2-oxo-2,3-dihydro-1H-benzo[d]imidazol-5-yl)ethyl)oxazolidin-4-one] | 11 nM |
| O=C1CO[C@@H](c2cn(-c3ccc(Br)cc3)nc2-c2ccoc2)N1CCc1ccc2[nH]c(=O)[nH]c2c1 [example 21 S isomer, (S)-2-(1-(4-bromophenyl)-3-(furan-3-yl)-1H-pyrazol-4-yl)-3-(2-(2-oxo-2,3-dihydro-1H-benzo[d]imidazol-5-yl)ethyl)oxazolidin-4-one] | > 1000 nM |
| O=C1COC(c2cn(-c3ccc(Br)cc3)nc2-c2ccco2)N1CCc1ccc2[nH]c(=O)[nH]c2c1 (centres unmarked) [example 22, 2-(1-(4-bromophenyl)-3-(furan-2-yl)-1H-pyrazol-4-yl)-3-(2-(2-oxo-2,3-dihydro-1H-benzo[d]imidazol-5-yl)ethyl)oxazolidin-4-one] | 85.3 nM |
| COC(=O)Nc1nc2cc(CCN3C(=O)COC3c3cn(-c4ccc(Br)cc4)nc3-c3ccc(F)cc3)ccc2[nH]1 (centres unmarked) [example 23, Methyl (5-(2-(2-(I -(4-bromophenyl)-3-(4-fluorophenyl)-1H-pyrazol-4-yl)oxazoline-4-one-3-yl)ethyl)-1H-benzo[d]imidazol-2-yl)carbamate] | 127 nM |

Source: patent US10519145B2, “Pyrazole-oxazolidinone compound for anti-hepatitis B virus” (Shanghai Zhimeng Biopharma Co., Ltd., priority 2016, dated 2019)
